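Values below derive from 48-hour exposures of cells grown in 96-well plates, with endpoints linearly interpolated between the two concentrations bracketing the appropriate inhibition level. At the GI50, growth is halved. TGI marks complete inhibition of growth.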
What was measured:
Assay in all cases: DTP human tumour cell line panel, 48 h
MDA-MB-435 = tested on: MDA-MB-435
UACC-257 melanoma = tested on: UACC-257 melanoma
NCI-H460 lung = tested on: NCI-H460 lung
HT29 colon = tested on: HT29 colon
SF-539 CNS = tested on: SF-539 CNS
IGROV1 ovarian = tested on: IGROV1 ovarian
HOP-62 NSCLC = tested on: HOP-62 NSCLC
SW-620 colon = tested on: SW-620 colon
U251 CNS = tested on: U251 CNS
HOP-92 NSCLC = tested on: HOP-92 NSCLC
EKVX NSCLC = tested on: EKVX NSCLC
SK-MEL-5 melanoma = tested on: SK-MEL-5 melanoma
HCT-116 colon = tested on: HCT-116 colon
LOX IMVI melanoma = tested on: LOX IMVI melanoma
SK-OV-3 ovarian = tested on: SK-OV-3 ovarian
CCRF-CEM leukemia = tested on: CCRF-CEM leukemia
OVCAR-5 ovarian = tested on: OVCAR-5 ovarian
DU-145 prostate = tested on: DU-145 prostate
COLO 205 colon = tested on: COLO 205 colon
HCC-2998 colon = tested on: HCC-2998 colon
SK-MEL-2 melanoma = tested on: SK-MEL-2 melanoma
CAKI-1 renal = tested on: CAKI-1 renal
UACC-62 melanoma = tested on: UACC-62 melanoma
K-562 leukemia = tested on: K-562 leukemia
OVCAR-8 ovarian = tested on: OVCAR-8 ovarian
UO-31 renal = tested on: UO-31 renal
A498 renal = tested on: A498 renal
OVCAR-3 ovarian = tested on: OVCAR-3 ovarian
HCT-15 colon = tested on: HCT-15 colon
OVCAR-4 ovarian = tested on: OVCAR-4 ovarian
NCI-H226 lung = tested on: NCI-H226 lung
HL-60(TB) leukemia = tested on: HL-60(TB) leukemia
A549 NSCLC = tested on: A549 NSCLC
SNB-19 CNS = tested on: SNB-19 CNS
T-47D breast = tested on: T-47D breast
MOLT-4 leukemia = tested on: MOLT-4 leukemia
TK-10 renal = tested on: TK-10 renal
NCI-H23 lung = tested on: NCI-H23 lung
SN12C renal = tested on: SN12C renal
SF-268 CNS = tested on: SF-268 CNS
M14 melanoma = tested on: M14 melanoma
SF-295 CNS = tested on: SF-295 CNS
RXF 393 renal = tested on: RXF 393 renal
BT-549 breast = tested on: BT-549 breast
SR leukemia = tested on: SR leukemia
SNB-75 CNS = tested on: SNB-75 CNS
HS 578T breast = tested on: HS 578T breast
MDA-MB-231 breast = tested on: MDA-MB-231 breast
PC-3 prostate = tested on: PC-3 prostate
KM12 colon = tested on: KM12 colon
ACHN renal = tested on: ACHN renal
SK-MEL-28 melanoma = tested on: SK-MEL-28 melanoma
786-0 renal = tested on: 786-0 renal
MCF7 breast = tested on: MCF7 breast
RPMI-8226 leukemia = tested on: RPMI-8226 leukemia
NCI-H522 lung = tested on: NCI-H522 lung
MDA-MB-468 breast = tested on: MDA-MB-468 breast
MALME-3M melanoma = tested on: MALME-3M melanoma

`O=C1Nc2ccc(F)cc2/C1=C/c1cccc(OCc2ccccc2)c1` showed a GI50 (MDA-MB-435) of 15.1 µM, a TGI (MDA-MB-435) of 29 µM and a GI50 (UACC-257 melanoma) of 16.8 µM. It also gave a TGI (UACC-257 melanoma) of 36.2 µM, a GI50 (NCI-H460 lung) of 14.1 µM and a TGI (NCI-H460 lung) of 28.7 µM. For the same compound, the GI50 (HT29 colon) was 17.8 µM, the TGI (HT29 colon) was 35.4 µM and the GI50 (SF-539 CNS) was 14.8 µM. For the same compound, the TGI (SF-539 CNS) was 28.1 µM, the GI50 (IGROV1 ovarian) was 13.4 µM and the TGI (IGROV1 ovarian) was 27.1 µM. For the same compound, the GI50 (HOP-62 NSCLC) was 16.2 µM, the TGI (HOP-62 NSCLC) was 37.1 µM and the GI50 (SW-620 colon) was 15.1 µM. It also gave a TGI (SW-620 colon) of 29.4 µM, a GI50 (U251 CNS) of 12.6 µM and a TGI (U251 CNS) of 32.6 µM. For the same compound, the GI50 (HOP-92 NSCLC) was 3.76 µM, the TGI (HOP-92 NSCLC) was 17.1 µM and the GI50 (EKVX NSCLC) was 12.8 µM. For the same compound, the TGI (EKVX NSCLC) was 27.8 µM, the GI50 (SK-MEL-5 melanoma) was 15.8 µM and the TGI (SK-MEL-5 melanoma) was 29.8 µM. The GI50 (HCT-116 colon) was 10.5 µM, the TGI (HCT-116 colon) was 25.9 µM and the GI50 (LOX IMVI melanoma) was 8.51 µM. It also gave a TGI (LOX IMVI melanoma) of 28.7 µM, a GI50 (SK-OV-3 ovarian) of 16.7 µM and a TGI (SK-OV-3 ovarian) of 39.4 µM. For the same compound, the GI50 (CCRF-CEM leukemia) was 12.4 µM, the TGI (CCRF-CEM leukemia) was 35.2 µM and the GI50 (OVCAR-5 ovarian) was 16.5 µM. For the same compound, the TGI (OVCAR-5 ovarian) was 30.6 µM, the GI50 (DU-145 prostate) was 14.8 µM and the TGI (DU-145 prostate) was 31.4 µM. The GI50 (COLO 205 colon) was 17.8 µM, the TGI (COLO 205 colon) was 35.5 µM and the GI50 (HCC-2998 colon) was 16.3 µM. The TGI (HCC-2998 colon) was 31.7 µM, the GI50 (SK-MEL-2 melanoma) was 12.9 µM and the TGI (SK-MEL-2 melanoma) was 27.8 µM. The GI50 (CAKI-1 renal) was 8.46 µM, the TGI (CAKI-1 renal) was 21.7 µM and the GI50 (UACC-62 melanoma) was 10.4 µM. For the same compound, the TGI (UACC-62 melanoma) was 22.5 µM, the GI50 (K-562 leukemia) was 10.5 µM and the TGI (K-562 leukemia) was 31.8 µM. It also gave a GI50 (OVCAR-8 ovarian) of 20.1 µM, a TGI (OVCAR-8 ovarian) of 57.8 µM and a GI50 (UO-31 renal) of 10 µM. For the same compound, the TGI (UO-31 renal) was 21.7 µM, the GI50 (A498 renal) was 29.7 µM and the TGI (A498 renal) was greater than 100 µM. It also gave a GI50 (OVCAR-3 ovarian) of 11.8 µM, a TGI (OVCAR-3 ovarian) of 24.7 µM and a GI50 (HCT-15 colon) of 11.9 µM. The TGI (HCT-15 colon) was 29.3 µM, the GI50 (OVCAR-4 ovarian) was 9.89 µM and the TGI (OVCAR-4 ovarian) was 30.2 µM. It also gave a GI50 (NCI-H226 lung) of 12.5 µM, a TGI (NCI-H226 lung) of 27.1 µM and a GI50 (HL-60(TB) leukemia) of 11.7 µM. It also gave a TGI (HL-60(TB) leukemia) of 34.1 µM, a GI50 (A549 NSCLC) of 18.6 µM and a TGI (A549 NSCLC) of 75 µM. It also gave a GI50 (SNB-19 CNS) of 14.2 µM, a TGI (SNB-19 CNS) of 29.2 µM and a GI50 (T-47D breast) of 12.1 µM. It also gave a TGI (T-47D breast) of 62 µM, a GI50 (MOLT-4 leukemia) of 6.85 µM and a TGI (MOLT-4 leukemia) of 30.2 µM. The GI50 (TK-10 renal) was 19.6 µM, the TGI (TK-10 renal) was 41.9 µM and the GI50 (NCI-H23 lung) was 11.7 µM. For the same compound, the TGI (NCI-H23 lung) was 27.5 µM, the GI50 (SN12C renal) was 13.4 µM and the TGI (SN12C renal) was 26.8 µM. The GI50 (SF-268 CNS) was 14 µM, the TGI (SF-268 CNS) was 34.2 µM and the GI50 (M14 melanoma) was 14.9 µM. The TGI (M14 melanoma) was 31.5 µM, the GI50 (SF-295 CNS) was 15.2 µM and the TGI (SF-295 CNS) was 34.2 µM. For the same compound, the GI50 (RXF 393 renal) was 13.7 µM, the TGI (RXF 393 renal) was 29.8 µM and the GI50 (BT-549 breast) was 10.5 µM. The TGI (BT-549 breast) was 23.4 µM, the GI50 (SR leukemia) was 4.83 µM and the TGI (SR leukemia) was 23.1 µM. It also gave a GI50 (SNB-75 CNS) of 14.7 µM, a TGI (SNB-75 CNS) of 43.3 µM and a GI50 (HS 578T breast) of 15.4 µM. The TGI (HS 578T breast) was 57.9 µM, the GI50 (MDA-MB-231 breast) was 13.8 µM and the TGI (MDA-MB-231 breast) was 29.2 µM. It also gave a GI50 (PC-3 prostate) of 13.8 µM, a TGI (PC-3 prostate) of 30.3 µM and a GI50 (KM12 colon) of 13.7 µM. The TGI (KM12 colon) was 32.4 µM, the GI50 (ACHN renal) was 13.5 µM and the TGI (ACHN renal) was 26.5 µM. The GI50 (SK-MEL-28 melanoma) was 16 µM, the TGI (SK-MEL-28 melanoma) was 30.1 µM and the GI50 (786-0 renal) was 14.5 µM. The TGI (786-0 renal) was 29.5 µM, the GI50 (MCF7 breast) was 5.44 µM and the TGI (MCF7 breast) was 21.8 µM. For the same compound, the GI50 (RPMI-8226 leukemia) was 10.7 µM, the TGI (RPMI-8226 leukemia) was 30.7 µM and the GI50 (NCI-H522 lung) was 12.4 µM. It also gave a TGI (NCI-H522 lung) of 27.3 µM, a GI50 (MDA-MB-468 breast) of 10.8 µM and a TGI (MDA-MB-468 breast) of 23.6 µM. For the same compound, the GI50 (MALME-3M melanoma) was 15.5 µM and the TGI (MALME-3M melanoma) was 29 µM.
